Among the data in patent US20250368628A1, “METHODS AND COMPOUNDS FOR MODULATING INHERITED GENETIC DISEASES” (Design Therapeutics, Inc., priority 2022, published 2025) are EC50 values, retold here.

For assay [1], the system named is Myotonic Dystrophy 1 affected patient fibroblasts (Coriel GM04602; 1600 CTG repeats). Description: DM1 foci reduction assay (EC50 assay; CAG10-Cy3 FISH, foci per nucleus). The class given is cell-based. Summed up: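 Foci per nucleus counted by 20× imaging of 4 areas per well, after overnight FISH with 5 nM CAG10-Cy3 and DAPI staining of fixed, permeabilized cells. DM1 fibroblasts (GM04602, 1600 CTG) were dosed 48 h at 37 °C, 8 points, 3-fold dilutions, 3 μM top concentration.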

For the next assay, the system named is F35T cells. Description: Foci reduction in FECD (CAG10-Cy3 FISH, foci per nucleus). The class given is cell-based. The method, then: F35T cells were cultured in media containing Opti-MEM (ThermoFisher) supplemented with 8% FBS, 20 μg/mL ascorbic acid, […] CaCl2, 0.08% chondroitin sulfate, 1×Pen/Strep, 100 μg/mL bovine pituitary extract, 5 ng/mL epidermal growth factor, and 20 ng/mL nerve growth factor. Throughout the culture, cells were maintained in an incubator at 37° C. and 5% CO2. Media was refreshed every 48 hours. Once cells reached adequate confluency, they were harvested and seeded in 96 well plates with a density of 5000 cells per well in 200 μL of the supplemented Opti-MEM media. Cells were returned to the incubator and left to settle for 24 hours at 37° C. and 5% CO2. Cells were then treated in 8-point dose response with compounds or negative controls and incubated for 48 hours at 37° C. and 5% CO2. After treatment, cells were fixed with 4% PFA for 20 minutes at room temperature, followed by permeabilization with 70% ethanol. Cells were incubated at −20° C. for a minimum of 1 hour and maximum of 72 hours, after which the ethanol was removed, and cells were washed with PBS. Cells were rehydrated with 30% formamide and 2×SSC buffer for 10 minutes at room temperature. Cells were then incubated overnight at 37° C. in the hybridization solution containing 30% formamide, 2×SSC, 55 mg/mL dextran sulfate, 2.75 mg/mL bovine serum albumin, 0.2 μg/mL Herring sperm DNA, 1% vanadyl-ribonucleoside complex, and 0.05% 10 μM CAG10-Cy3 probe. Cells were washed twice with 30% formamide in 2×SSC, incubating the cells while shaking with the second wash at 37° C. and 200 rpm for 60 minutes. Cells were stained with 5 mg/mL DAPI 1:1000 in PBS, incubating at room temperature for 5 minutes. Cells were then washed with PBS and sealed with adhesive foil, with each well containing a final volume of 150 μL PBS. Cells were imaged on a Cytation 5 and analyzed on a foci per nucleus basis.

The mark [2] stands for this setting: Homo sapiens, Fibroblast; DM1 patient fibroblasts, 48 h treatment, foci per nucleus; read-out: DM1 EC50, 48 h.
[3] abbreviates: F35T cells, 48 h treatment, foci per nucleus; read-out: FECD EC50, 48 h.

Read-outs that look alike come from different tables or passages of the source.

By EC50 is commonly meant the concentration giving half of the maximal effect. As for `CN(CCCNC(=O)CCNC(=O)c1nc(NC(=O)c2cc(NC(=O)CCNC(=O)c3nc(NC(=O)CCCNC(=O)c4cc(NC(=O)c5nc(NC(=O)CCNC(=O)c6cc(NC(=O)c7nccn7C)cn6C)cn5C)cn4C)cn3C)cn2C)cn1C)CCCNC(=O)c1cccc(C(=O)O)c1` [Compound B-35], the EC50 lay in the range of 500 to 1000 nM in assay [1] (setting [2]) and 100 to 500 nM in the assay on F35T cells (setting [3]).
Turning to `Cn1cc(NC(=O)c2nc(NC(=O)CCNC(=O)c3cc(NC(=O)c4nccn4C)cn3C)cn2C)cc1C(=O)NCCCC(=O)Nc1cn(C)c(C(=O)NCCC(=O)Nc2cc(C(=O)Nc3cn(C)c(C(=O)NCCC(=O)NCCOCCOCCOCCN4CCC(C#CC#CC5CCN(C(=O)C(C)(C)C)CC5)CC4)n3)n(C)c2)n1` [Compound B-123], the concentration for a half-maximal effect (EC50) was under 100 nM in assay [1] (setting [2]) and 100 to 500 nM in the assay on F35T cells (setting [3]).
In the same order, the values of `CN(CCCNC(=O)c1cccc(C(=O)O)c1)CCCNC(=O)c1cc(NC(=O)CCNC(=O)c2nc(NC(=O)[C@H](N)CCNC(=O)c3cc(NC(=O)c4nc(NC(=O)CCNC(=O)c5cc(NC(=O)c6nccn6C)cn5C)cn4C)cn3C)cn2C)cn1C` [Compound B-368] are over 1000 nM and over 1000 nM.
`Cn1cc(NC(=O)c2nc(NC(=O)CCNC(=O)c3cc(NC(=O)c4nccn4C)cn3C)cn2C)cc1C(=O)NCCCC(=O)Nc1cn(C)c(C(=O)NCCC(=O)Nc2cc(C(=O)Nc3cn(C)c(C(=O)NCCC(=O)N4CCC(CN5CCNCC5)CC4)n3)n(C)c2)n1` [Compound B-127]: the EC50 (in assay [1] (setting [2]); with F35T cells (setting [3])) was 100 to 500 nM each time.
On to `CCCNC(=O)CCNC(=O)c1nc(NC(=O)c2cc(NC(=O)CCNC(=O)c3nc(NC(=O)CCCNC(=O)c4cc(NC(=O)c5nc(NC(=O)CCNC(=O)c6cc(NC(=O)c7nccn7C)cn6C)cn5C)cn4CCCCCN=[N+]=[N-])cn3C)cn2C)cn1C` [Compound B-285], for which the EC50 (in assay [1] (setting [2]); in the assay on F35T cells (setting [3])) was under 100 nM each time.
`CN(C)CCCNC(=O)c1nc(NC(=O)c2cc(NC(=O)CCNC(=O)c3nc(NC(=O)CCCNC(=O)c4cc(NC(=O)c5nc(NC(=O)CCNC(=O)c6cc(NC(=O)c7nccn7C)cn6C)cn5C)cn4C)cn3C)cn2C)cn1C` [Compound B-108]: the EC50 (in assay [1] (setting [2]); in the assay with F35T cells (setting [3])) was 100 to 500 nM each time.
Regarding `Cn1cc(NC(=O)c2nc(NC(=O)CCNC(=O)c3cc(NC(=O)c4nccn4C)cn3C)cn2C)cc1C(=O)NCCCC(=O)Nc1cn(C)c(C(=O)NCCC(=O)Nc2cc(C(=O)Nc3cn(C)c(C(=O)NCCCCCCCN)n3)n(C)c2)n1` [Compound B-337], the EC50 in assay [1] (setting [2]) was 100 to 500 nM; in the assay on F35T cells (setting [3]), under 100 nM.
Turning to `CCCNC(=O)CCNC(=O)c1nc(NC(=O)c2cc(NC(=O)CCNC(=O)c3nc(NC(=O)CCCNC(=O)c4cc(NC(=O)c5nc(NC(=O)CCNC(=O)c6cc(NC(=O)c7nccn7C)cn6C)cn5C)cn4CCCCN=[N+]=[N-])cn3C)cn2C)cn1C` [Compound B-278], the EC50 (in assay [1] (setting [2]); in the assay on F35T cells (setting [3])) was under 100 nM throughout.
As for `Cn1cc(NC(=O)c2nc(NC(=O)CCNC(=O)c3cc(NC(=O)c4nccn4C)cn3C)cn2C)cc1C(=O)NCCCC(=O)Nc1cn(C)c(C(=O)NCCC(=O)Nc2cc(C(=O)Nc3cn(C)c(C(=O)NCCCN4CCNCC4)n3)n(C)c2)n1` [Compound B-207], the figures for the EC50 (in assay [1] (setting [2]); with F35T cells (setting [3])) were 100 to 500 nM and over 1000 nM, respectively.
The corresponding values for `Cn1cc(NC(=O)c2nc(NC(=O)CCNC(=O)c3cc(NC(=O)c4nccn4C)cn3C)cn2C)cc1C(=O)NCCCC(=O)Nc1cn(C)c(C(=O)NCCC(=O)Nc2cc(C(=O)Nc3cn(C)c(C(=O)NCCC(=O)N4CCC(C#CC#CC5CCCCC5)CC4)n3)n(C)c2)n1` [Compound B-385] are over 1000 nM and 100 to 500 nM.
On to `CCCn1cc(NC(=O)c2nc(NC(=O)CCNC(=O)c3cc(NC(=O)c4nccn4C)cn3C)cn2C)cc1C(=O)NCCCC(=O)Nc1cn(C)c(C(=O)NCCC(=O)Nc2cc(C(=O)Nc3cn(C)c(C(=O)NCCC(=O)N4CCN(C)CC4)n3)n(C)c2)n1` [Compound B-429], for which the 50% effective concentration (EC50) is under 100 nM in assay [1] (Homo sapiens, Fibroblast; DM1 patient fibroblasts, foci per nucleus, 48 h treatment; read-out: DM1 EC50, 48 h) and under 100 nM in the assay with F35T cells (F35T cells, foci per nucleus, 48 h treatment; read-out: FECD EC50, 48 h).
As for `CCCNC(=O)CCNC(=O)c1nc(NC(=O)c2cc(NC(=O)CCNC(=O)c3nc(NC(=O)CCCNC(=O)c4cc(NC(=O)c5nc(NC(=O)CCNC(=O)c6cc(NC(=O)c7nccn7C)cn6C)cn5C)cn4CCCOCCNC(C)=O)cn3C)cn2C)cn1C` [Compound B-304], the EC50 (in assay [1] (setting [2]); in the assay on F35T cells (setting [3])) was under 100 nM throughout.
For the compound `COCCOCCOCCOCCOCCOCCC(=O)NCCCCCCn1cc(NC(=O)c2nc(NC(=O)CCNC(=O)c3cc(NC(=O)c4nccn4C)cn3C)cn2C)cc1C(=O)NCCCC(=O)Nc1cn(C)c(C(=O)NCCC(=O)Nc2cc(C(=O)Nc3cn(C)c(C(=O)NCCC(=O)N4CCC(C#CC#CC5CCNCC5)CC4)n3)n(C)c2)n1` [Compound B-240], the EC50 is 100 to 500 nM in assay [1] (setting [2]) and under 100 nM in the assay with F35T cells (setting [3]).
As to `CC(=O)NCCn1cc(NC(=O)c2nc(NC(=O)CCNC(=O)c3cc(NC(=O)c4nccn4C)cn3C)cn2C)cc1C(=O)NCCCC(=O)Nc1cn(C)c(C(=O)NCCC(=O)Nc2cc(C(=O)Nc3cn(C)c(C(=O)NCCC(=O)N4CCC(C#CC#CC5CCN(C(C)=O)CC5)CC4)n3)n(C)c2)n1` [Compound B-269], the EC50 in assay [1] (setting [2]) was 100 to 500 nM; in the assay with F35T cells (setting [3]), under 100 nM.
In the same order, the values of `CCN(CC)CCCC[C@H](NC(=O)c1ccc(C(C)(C)C)cc1)C(=O)NCCOCCOCCOCCOCCOCCNC(=O)CCNC(=O)c1nc(NC(=O)c2cc(NC(=O)CCNC(=O)c3nc(NC(=O)CCCNC(=O)c4cc(NC(=O)c5nc(NC(=O)CCNC(=O)c6cc(NC(=O)c7nccn7C)cn6C)cn5C)cn4C)cn3C)cn2C)cn1C` [Compound B-92] are 100 to 500 nM and 500 to 1000 nM.
In the case of `Cn1cc(NC(=O)c2nc(NC(=O)CCNC(=O)c3cc(NC(=O)c4nccn4C)cn3C)cn2C)cc1C(=O)NCCCC(=O)Nc1cn(C)c(C(=O)NCCC(=O)Nc2cc(C(=O)Nc3cn(C)c(C(=O)NCCC(=O)N4CCN(CCOCCOCCOCCOCCNC(=O)OC(C)(C)C)CC4)n3)n(C)c2)n1` [Compound B-27], the concentration giving a half-maximal response (EC50) (in assay [1] (setting [2]); with F35T cells (setting [3])) was 100 to 500 nM each time.
Regarding `CC(C)N1CCC(C#CC#CC2CCN(CCOCCOCCOCCNC(=O)CCNC(=O)c3nc(NC(=O)c4cc(NC(=O)CCNC(=O)c5nc(NC(=O)CCCNC(=O)c6cc(NC(=O)c7nc(NC(=O)CCNC(=O)c8cc(NC(=O)c9nccn9C)cn8C)cn7C)cn6C)cn5C)cn4C)cn3C)CC2)CC1` [Compound B-124], the EC50 was in the range of 100 to 500 nM in assay [1] (setting [2]) and 500 to 1000 nM in the assay on F35T cells (setting [3]).
Take `Cn1cc(NC(=O)c2nccn2C)cc1C(=O)NCCC(=O)Nc1cn(C)c(C(=O)Nc2cc(C(=O)NCCCC(=O)Nc3cn(C)c(C(=O)NCCC(=O)Nc4cc(C(=O)Nc5cn(C)c(C(=O)NCCC(=O)N6CCC(C#CC#CC7CCNCC7)CC6)n5)n(C)c4)n3)n(CCN)c2)n1` [Compound B-267]: the EC50 (in assay [1] (setting [2]); in the assay with F35T cells (setting [3])) was under 100 nM each time.
Consider `CC(=O)N1CCC(C#CC#CC2CCN(CCCNC(=O)c3nc(NC(=O)c4cc(NC(=O)CCNC(=O)c5nc(NC(=O)CCCNC(=O)c6cc(NC(=O)c7nc(NC(=O)CCNC(=O)c8cc(NC(=O)c9nccn9C)cn8C)cn7C)cn6C)cn5C)cn4C)cn3C)CC2)CC1` [Compound B-251], for which the EC50 (in assay [1] (setting [2]); in the assay on F35T cells (setting [3])) was under 100 nM in each case.
With `CCCCCCN1CCC(C#CC#CC2CCN(CCOCCOCCOCCNC(=O)CCNC(=O)c3nc(NC(=O)c4cc(NC(=O)CCNC(=O)c5nc(NC(=O)CCCNC(=O)c6cc(NC(=O)c7nc(NC(=O)CCNC(=O)c8cc(NC(=O)c9nccn9C)cn8C)cn7C)cn6C)cn5C)cn4C)cn3C)CC2)CC1` [Compound B-172], the EC50 in assay [1] (setting [2]) was under 100 nM; in the assay on F35T cells (setting [3]), 100 to 500 nM.
The corresponding values for `CCNC(=O)c1nc(NC(=O)c2cc(NC(=O)CCNC(=O)c3nc(NC(=O)CCCNC(=O)c4cc(NC(=O)c5nc(NC(=O)CCNC(=O)c6cc(NC(=O)c7nccn7C)cn6C)cn5C)cn4C)cn3C)cn2C)cn1C` [Compound B-312] are under 100 nM and under 100 nM.
In the same order, the values of `Cn1cc(NC(=O)c2nc(NC(=O)CCNC(=O)c3cc(NC(=O)c4nccn4C)cn3C)cn2C)cc1C(=O)NCCCC(=O)Nc1cn(C)c(C(=O)NCCC(=O)Nc2cc(C(=O)Nc3cn(C)c(C(=O)NCCC(=O)NCCCN4CCOCC4)n3)n(C)c2)n1` [Compound B-37] are 100 to 500 nM and 100 to 500 nM.
Consider `Cn1cc(NC(=O)c2nc(NC(=O)CCNC(=O)c3cc(NC(=O)c4nccn4C)cn3C)cn2C)cc1C(=O)NCCCC(=O)Nc1cn(C)c(C(=O)NCCC(=O)Nc2cc(C(=O)Nc3cn(C)c(C(=O)NCCCNCC#Cc4ccc(C(=O)O)cc4)n3)n(C)c2)n1` [Compound B-249], for which the EC50 in assay [1] (setting [2]) was 100 to 500 nM; in the assay on F35T cells (setting [3]), under 100 nM.
